Measured values taken from the NIST ThermoML archive (doi:10.1021/acs.jced.5b00197).

Assay: refractive index (other wavelength) (dimensionless); xn = mol fraction of the nth substance listed
Settings: 94.64 kPa, Liquid, Standard Abbe refractometry

CC(=O)O [acetic acid] + O
refractive index
Settings	Wavelength=404.7 nm	Wavelength=435.8 nm	Wavelength=486.1 nm	Wavelength=546.1 nm	Wavelength=587.6 nm	Wavelength=632.8 nm	Wavelength=644 nm	Wavelength=706.5 nm
293.15 K, x1 = 0.0322	1.35074	1.34808	1.34498	1.34229	1.34084	1.3395	1.33919	1.33766
293.15 K, x1 = 0.0697	1.35808	1.35532	1.35218	1.3494	1.34797	1.34664	1.34631	1.34473
293.15 K, x1 = 0.114	1.36535	1.36252	1.35924	1.35643	1.35495	1.35355	1.35322	1.35158
293.15 K, x1 = 0.167	1.37162	1.36869	1.36533	1.36247	1.36095	1.35953	1.35919	1.35756
293.15 K, x1 = 0.231	1.37678	1.3738	1.37034	1.36744	1.36589	1.36444	1.36411	1.36247
293.15 K, x1 = 0.31	1.38181	1.37874	1.37522	1.37227	1.37068	1.36921	1.36888	1.36724
293.15 K, x1 = 0.412	1.38536	1.38226	1.37869	1.37571	1.37412	1.37264	1.3723	1.37065
293.15 K, x1 = 0.545	1.38847	1.3853	1.38169	1.37868	1.37709	1.37561	1.37526	1.37359
293.15 K, x1 = 0.629	1.38867	1.3855	1.38192	1.37889	1.3773	1.37583	1.37548	1.37381
293.15 K, x1 = 0.729	1.38865	1.38547	1.38189	1.37886	1.37727	1.37581	1.37547	1.37382
293.15 K, x1 = 0.85	1.38695	1.38381	1.38021	1.37723	1.37565	1.37419	1.37386	1.37224
293.15 K, x1 = 1	1.38345	1.38034	1.37681	1.37386	1.3723	1.37087	1.37055	1.36896
298.15 K, x1 = 0.0322	1.34997	1.34733	1.34424	1.34156	1.34012	1.33879	1.33848	1.33695
298.15 K, x1 = 0.0697	1.35708	1.35435	1.35121	1.34845	1.347	1.34567	1.34535	1.34377
298.15 K, x1 = 0.114	1.36413	1.36131	1.35805	1.35525	1.35378	1.35239	1.35206	1.35044
298.15 K, x1 = 0.167	1.37026	1.36733	1.36401	1.36114	1.35963	1.35823	1.3579	1.35625
298.15 K, x1 = 0.231	1.37523	1.37226	1.36885	1.36595	1.36441	1.36298	1.36265	1.36102
298.15 K, x1 = 0.31	1.38012	1.37707	1.37358	1.37063	1.36906	1.36762	1.36728	1.36564
298.15 K, x1 = 0.412	1.38357	1.38048	1.37695	1.37398	1.37239	1.37092	1.37059	1.36894
298.15 K, x1 = 0.545	1.38656	1.38342	1.37983	1.37683	1.37525	1.37378	1.37344	1.37178
298.15 K, x1 = 0.629	1.38681	1.38367	1.38008	1.37709	1.37551	1.37404	1.3737	1.37205
298.15 K, x1 = 0.729	1.38668	1.38352	1.37994	1.37695	1.37536	1.3739	1.37357	1.37193
298.15 K, x1 = 0.85	1.38488	1.38174	1.37819	1.37522	1.37365	1.37221	1.37188	1.37027
298.15 K, x1 = 1	1.38126	1.37816	1.37466	1.37174	1.37018	1.36876	1.36844	1.36686
303.15 K, x1 = 0.0322	1.34916	1.34654	1.34343	1.34077	1.33932	1.338	1.3377	1.3362
303.15 K, x1 = 0.0697	1.35605	1.35332	1.35017	1.34743	1.34598	1.34464	1.34432	1.34275
303.15 K, x1 = 0.114	1.36289	1.36008	1.35684	1.35405	1.35256	1.35117	1.35085	1.34926
303.15 K, x1 = 0.167	1.36886	1.36596	1.36261	1.35979	1.35827	1.35686	1.35653	1.35492
303.15 K, x1 = 0.231	1.37369	1.37074	1.36734	1.36446	1.36293	1.36151	1.36118	1.35956
303.15 K, x1 = 0.31	1.37842	1.37539	1.37192	1.36899	1.36742	1.36598	1.36565	1.36402
303.15 K, x1 = 0.412	1.38176	1.37869	1.37516	1.37223	1.37064	1.36917	1.36884	1.36722
303.15 K, x1 = 0.545	1.38463	1.3815	1.37794	1.37497	1.37337	1.3719	1.37157	1.36995
303.15 K, x1 = 0.629	1.38481	1.38167	1.37813	1.37513	1.37355	1.3721	1.37176	1.37013
303.15 K, x1 = 0.729	1.38467	1.38153	1.37797	1.375	1.37341	1.37196	1.37163	1.37002
303.15 K, x1 = 0.85	1.38283	1.37972	1.37618	1.37323	1.37166	1.37023	1.3699	1.36831
303.15 K, x1 = 1	1.37917	1.37611	1.37261	1.36968	1.36815	1.36675	1.36643	1.36485
